Assay results published in patent US20100260772A1, “METHODS FOR TREATING OR PREVENTING DISEASES ASSOCIATED WITH LOW BONE MASS” (THE TRUSTEES OF COLUMBIA UNIVERSITY IN THE CITY OF NEW YORK, priority 2007, published 2010).

Experiments:
[1] = test system: neuropeptides Y (Npy), a leptin target gene in arcuate neurons; experiment: Leptin injection, Npy expression (internal control); assay type: in vivo, mice; conditions: same leptin injection
Excerpt: Next, we injected i.p […] of leptin and studied its effects on Tph2 expression 4 and […]. We also measured the brain concentration of serotonin in leptin knockouts (ob/ob mice). FIG. 5. […] FIG. 15. […] FIG. 5. […] Serotonin neurons in the brain stem have the ObRb receptors that bind to leptin, and they project to the hypothalamus.

[2] = test system: Tph2 expression in brainstem; experiment: Leptin injection, Tph2 expression in brainstem; assay type: in vivo, mice
[3] = test system: cfos expression in brain stems; experiment: Leptin injection, cfos expression in brain stem; assay type: in vivo; conditions: following leptin injection
Excerpt: We know that expression of the leptin receptor ObRb is not restricted to hypothalamic neurons and can be found in particular in serotonin-producing neurons of the brainstem that also express Tph2. […] This latter result means that leptin's first site of action in the brain is not, at least as far as controlling bone mass is concerned, the hypothalamus but rather the brainstem where serotonergic neurons are localized.

## leptin: endogenous polypeptide product of an ob gene
[1]
  expression of neuropeptides Y (Npy): decreased
[2]; leptin injection (ICV, FIG. 7)
  Tph2 expression in brain stem (in words): decreases Tph2 expression
[2]; leptin injection i.c.v., FIG. 15
  decrease of Tph2 expression in brainstem: approximately 50%
[3]
  cfos expression in brain stems: increased cfos expression
